pEC50, pIC50: −log10 of the molar value.
How the values were obtained:
HCT116 colon cancer cell = details: cited from earlier work
[1] = test system: Wnt/β-catenin signaling pathway; assay: Topflash/Fopflash luciferase report assay in SW480 cells; type: cell-based; details: 30 μM
Text: (§1) We synthesized derivatives 5–10 bearing 5-membered and 6-membered heterocyclic rings at the position 3′ or 4′ of the B phenyl ring. […] SW480 cells show higher Wnt activation compared to HCT116 cells.[28] […] In SW480 cells, compounds 5–10 were in the 1.75%(10)–7.32%(7) range of residual luciferase activity, except 6(28.46%), compared to 3(21.61%); in HCT116 cells, compounds 5–10 were in the 0.37%(7)–5.88%(5) range, compared to 3 (18.75%) (Table 1 and Figure 5).
(§2) Figure 5 Residual luciferase activity (%) by compounds 5–10 and reference compound 3 in SW480 cells (left panel) and HCT116 cells (right panel). Data are represented as the mean ± SD of three independent experiments, each performed in triplicate.
(§3) Briefly, the Topflash plasmid (Beyotime, Zhejiang, China) contains 7 TCF/LEF binding sites, while the Fopflash plasmid (Beyotime, Zhejiang, China) contains 6 mutated TCF/LEF binding sites, which are located in the upstream of the luciferase reporter. SW480 and HCT116 cell lines were cultured in 90% DMEM (HyClone, #SH30243.01) plus 10% fetal bovine serum (Gibco, #10270) and plasmocin (mpp-39-03, InvivoGen), respectively. The Topflash/Fopflash vector and plasmid pTK-renilla together were co-transfected to the cells. […] The Dual-Glo luciferase assay kit (Promega, #E1910) was used to measure the luminescence intensity (Figure 2).

[2] = test system: Wnt/β-catenin signaling pathway; assay: Topflash/Fopflash luciferase report assay in HCT116 cells; type: cell-based, human; details: 30 μM
Text: as §1, §2, §3

HCC1937 cells = assay: Cell proliferation by live-cell imaging (IncuCyte), HCC1937 TNBC cells; type: cell-based; details: 40 μM, 72 h
Procedure: (§4) As TNBC is a highly heterogeneous subgroup, including breast cancers with different molecular and phenotypic traits,[37] effects of compounds 5–10 on cell proliferation were also tested in additional TNBC cell lines, i.e., HCC1806 and HCC1937. As inhibitors of HCC1806 TNBC cells, compounds 5–10 were evaluated in parallel with compounds 3, ICG-001, and iCRT3 (Figures 10 and S12–S19, Supporting Information); as inhibitors of the HCC1937 TNBC cells, 5–10 were compared with 3 and iCRT3 (Figures 10, S20, and S21). Effects on cell proliferation were evaluated as above for the MDA-MB-231 TNBC cells at the latest time point of observation of 72 h.
(§5) Figure 10 Inhibition of MDA-MB-231, HCC1806, and HCC1937 TNBC cell growth by compounds 5–10 and reference compounds 3, […], and iCRT3 at 40 μM. Cell growth inhibition was quantified using the IncuCyte cell-by-cell analysis software, by comparison with the growth of DMSO-treated cells at 72 h, set at 100% (mean ± SD, n = 3, one-way ANOVA, **p ≤ 0.01, ****p ≤ 0.0001).
(§6) Cell proliferation of breast cancer cell lines upon continuous treatment with select compounds was evaluated by the real-time quantitative live-cell imaging system. MDA-MB-231 (1500 cells/well), HCC1806 (2000 cells/well), and HCC1937 (3000 cells/well) were seeded in 96-well plates, treated with increasing doses of selected compounds and images (5 images/well) were acquired every 8 h for 3 days at 10× magnification in an IncuCyte SX5 live-content imaging system (Essen Bioscience) at 37 °C with 5% CO2. Images were analyzed using IncuCyte cell-by-cell analysis software to detect and quantify live cells (phase-contrast). The number of cells at each time point was quantified using IncuCyte cell-by-cell analysis software, and cell growth was evaluated as the normalized ratio between counted cells at each time point normalized to those counted at time 0. Graph drawing and statistical analyses were performed in GraphPad Prism according to the statistical tests described in the figure legends.

HCC1806 cells = assay: Cell proliferation by live-cell imaging (IncuCyte), HCC1806 TNBC cells; type: cell-based; details: 40 μM, 72 h
Procedure: as §4, §5, §6

MDA-MB-231 cells = assay: Cell proliferation by live-cell imaging (IncuCyte), MDA-MB-231 TNBC cells; type: cell-based; details: for effect on MDA-MB-231 cell proliferation: 40 μM, 48 and 72 h
Text: TNBC represents approximately 10–15% of all breast cancers and is the most aggressive subtype of breast cancer. Patients with TNBC have a poor outcome compared to the other subtypes of breast cancer. In the breast cancer tissue, β-catenin is overexpressed compared to the normal tissue. The overexpression of β-catenin is associated with TNBC and lymph node metastasis. […] There is a quest for the development of new therapies to treat TNBC. […] Effects on cell proliferation of MDA-MB-231 TNBC cells were evaluated by live-time cell imaging using the Incucyte S5 system.
as §5, §6

SW620 cells = assay: Inhibition of SW620 cells; type: cell-based; details: Homo sapiens, SW-620, in the combination 9 at constant 0.25 μM
Fgf20 and Sal4 = assay: Wnt-target gene mRNA levels (qPCR) in LiCl-treated HCT116 cells; type: cell-based, human; details: HCT116, LiCl 50 mM, 24 h, 10 μM
Procedure: (§7) To this end, HCT116 cells were treated for 24 h with 50 mM LiCl and increasing concentrations (10–50–100 μM) of the two compounds.
HCT116 was treated with LiCl (50 mM) and 10 μM compound 9 or 10 for 24 h. Fgf20, Sall4 (Wnt-target genes) mRNA levels were measured by qPCR and normalized to the expression of β-actin mRNA. Results are expressed as fold change relative to the control sample and represent the mean ± SD of three independent experiments, each performed in triplicate. *p < 0.05, **p < 0.01, ***p < 0.001 as determined by ANOVA.

β-catenin = assay: Wnt reporter assay (TOP/FOP luciferase) in LiCl-treated HCT116 cells; type: cell-based; details: Homo sapiens, HCT-116, read-out: IC50, inhibition of β-catenin (luciferase reporter), LiCl 50 mM, 24 h
Procedure: Compounds 9 and 10 were assayed at increasing 10 and 100 nM and 1 μM concentrations in HCT116 cells transfected with luciferase-based vectors and treated with LiCl (50 mM). TOP TK is a well-established Wnt reporter vector containing eight sequences of Tcf/Lef binding site upstream of the timidine kinase (TK) minimal promoter, driving the expression of firefly luciferase.
Figure 6 HCT116 cells were transfected with luciferase-based vectors and treated with LiCl (50 mM) together with increasing concentrations of compound 9 or 10. Cells were harvested 24 h post-treatment and assayed for luciferase activity. Inhibitions were calculated as the luciferase/renilla ratio of the treated samples vs. the luciferase/renilla ratio of the untreated (control) samples. Data are represented as the mean ± SD of three independent experiments, each performed in triplicate. **p < 0.01, ***p < 0.001, n.s = not significant, as determined by analysis of variance (ANOVA).
Luciferase assays were performed as previously described.[58],[59] Briefly, HCT116 cells were transfected with Topflash reporter (M50 Super 8x TOPFlash, containing 8 repeats of TCF/LEF binding sites) or Fopflash reporter (M51 Super 8x FOPFlash, containing the mutated TCF/LEF binding sites) plasmids using the Dreamfect Gold Transfection Reagent (#DG80500, OZ Biosciences). […]

Myc = Myc and β-catenin expression (western blot, qPCR) in LiCl-treated HCT116 cells; type: cell-based, human; details: HCT116, LiCl 50 mM, 24 h
Procedure: as §7
Figure 7 Top panels. […] Vinculin was used as a loading control. […] Bottom panels. c-Myc mRNA levels were measured by qPCR and normalized to the expression of β-actin mRNA and expressed as fold change relative to the control sample. Results represent the mean ± SD of three independent experiments, each performed in triplicate. **p < 0.01, ***p < 0.001 as determined by ANOVA.
Briefly, total proteins from the cells in each group were subjected to 12% denaturing sodium dodecyl sulfate-polyacrylamide gel electrophoresis (SDS-PAGE). The proteins were then transferred onto a poly(vinylidene fluoride) (PVDF) membrane (Millipore). […] After the membrane was fully washed, it was incubated with secondary antibodies at 37 °C for 45 min goat anti-rabbit IgG H&L (HRP) (ab97051), Abcam, MA. The membrane was washed with Tris-buffered saline/Tween-20 (TBST) 4 times at room temperature for 14 min each time. Next, the samples were exposed and imaged (Sigma-Aldrich Chemical) using the enhanced chemiluminescence (ECL) method (Pierce Biotechnology).

[3] = test system: β-catenin/Tcf-4 interaction; assay: Co-immunoprecipitation of β-catenin and Myc-tagged Tcf-4 in HCT116 cells; type: cell-based, human; details: HCT116 transfected with Myc-tagged Tcf-4, LiCl 50 mM, 50 μM, 24 h
Procedure: Toward this end, we performed a co-immunoprecipitation study in HCT116 cells transfected with Myc-tagged Tcf-4, treated with the two compounds, and immunoprecipitated with Myc antisera.
HCT116 cells were transiently transfected with the Myc-tagged Tcf-4 plasmid and treated with LiCl (50 mM) and 9 (50 μM) or 10 (50 μM) for 24 h. Lysates were immunoprecipitated using Myc-agarose beads and western blot analysis was performed. […] Myc-agarose beads saturated with the Myc-blocking peptide before immunoprecipitation were used as a negative control.
Co-immunoprecipitation assays were performed as previously described.[16],[60] Briefly, 2 × 10^4/cm^2 HCT116 cells were seeded in a 100 mm dish and incubated overnight at 37 °C. Cells were transfected with pcDNA/Myc Tcf-4 (Addgene plasmid #16512; http://n2t.net/addgene:16512; RRID:Addgene_16512)[29] and, after overnight incubation, were starved for 8 h in a medium containing Opti-MEM (#31985070, Thermo Fisher Scientific), FBS 0.5%, pen/strep 1%, NaPyr 1%, NeAA 1%, and then co-treated with 50 mM LiCl and DMSO or 50 μM compound 9 or 50 μM compound […] for 24 h. Cells were collected at the end of the treatments and lysed in a buffer containing 0.5% Triton X-100, 0.5 mM EDTA, and 1 mM DTT. […] Chemioluminescence was detected using WesternBright ECL (#K-12045-D50, Advansta), according to the manufacturer’s protocol.

Row | Structure (SMILES) | melting point [°C] | % Luciferase Activity SW480 (residual) [1] [%] | % Luciferase Activity HCT116 (residual) [2] [%] | effect on HCC1937 cell growth (HCC1937 cells) | effect on HCC1806 cell growth (HCC1806 cells) | also measured
1 | COC(=O)c1ccc(NS(=O)(=O)c2ccc(Br)cc2)cc1 [Compound 1] |  |  |  |  |  | IC50, HCT116 colon cancer cell growth (HCT116 colon cancer cell): submicromolar
2 | CCOC(=O)c1ccc(NS(=O)(=O)c2ccc(Br)cc2)cc1 [Compound 3, Ethyl 4-((4-bromophenyl)sulfonamido)benzoate, reference compound] |  | 21.61 | 18.75 | mild efficacy | mild efficacy | 
3 | O=c1[nH]cc(F)c(=O)[nH]1 [Compound 5-FU, 5-fluorouracil, reference compound] |  |  |  |  |  | pEC50 (SW620 cells): 3.99
4 | O=S(=O)(Nc1ccc(-c2ccccn2)cc1)c1ccc(Cl)cc1 [Compound 10, 4-Chloro-N-(4-(pyridin-2-yl)phenyl)benzenesulfonamide] | 180 to 182 | 1.75 | 4.56 |  |  | mRNA levels of Wnt-target genes Fgf20 and Sal4 (Fgf20 and Sal4): strongly inhibited; pIC50 (β-catenin): < 6.00; inhibition of Myc expression (Myc; 10 μM): about 2.5 fold; protein and mRNA levels of Myc (Myc; 10–50–100 μM): significant dose-dependent inhibition; β-catenin protein levels (Myc; 10–50–100 μM): reduced only at the highest dose; association between β-catenin and Tcf-4 (co-immunoprecipitation) [3]: completely abrogated the association
5 | O=C1[C@H](Cc2ccc(O)cc2)N2C(=O)CCN(C(=O)NCc3ccccc3)[C@H]2CN1Cc1cccc2ccccc12 [ICG-001, reference compound] |  |  |  |  |  | reduction of MDA-MB-231 cell viability (MDA-MB-231 cells; even at the low dose of 0.49 μM): most effective compound

Continued, in another order:

Row | melting point [°C] | Structure (SMILES) | % Luciferase Activity SW480 (residual) [1] [%] | % Luciferase Activity HCT116 (residual) [2] [%] | effect on HCC1937 cell growth (HCC1937 cells) | effect on HCC1806 cell growth (HCC1806 cells) | also measured
6 | 147 to 150 | O=S(=O)(Nc1cccc(-c2ccco2)c1)c1ccc(Br)cc1 [Compound 5, 4-Bromo-N-(3-(furan-2-yl)phenyl)benzenesulfonamide] | 4.80 | 5.88 | significant inhibition | significant inhibition | effect on MDA-MB-231 cell proliferation (MDA-MB-231 cells): significant antiproliferative effects
7 | 175 to 177 | O=S(=O)(Nc1cccc(-c2ccccn2)c1)c1ccc(Br)cc1 [Compound 6, 4-Bromo-N-(3-(pyridin-2-yl)phenyl)benzenesulfonamide] | 28.46 | 5.14 | significant inhibition | significant inhibition | effect on MDA-MB-231 cell proliferation (MDA-MB-231 cells): significant antiproliferative effects
8 | 166 to 169 | O=S(=O)(Nc1cccc(-c2ccccn2)c1)c1ccc(Cl)cc1 [Compound 7, 4-Chloro-N-(3-(pyridin-2-yl)phenyl)benzenesulfonamide] | 7.32 | 0.37 |  | mild inhibitory effect | 
9 | 163 to 166 | O=S(=O)(Nc1ccc(-c2ccco2)cc1)c1ccc(Br)cc1 [Compound 8, 4-Bromo-N-(4-(furan-2-yl)phenyl)benzenesulfonamide] | 1.82 | 5.58 |  | mild inhibitory effect | 

From article PMC10353061 (ACS Pharmacology & Translational Science, 2023)
